For one assay, the target named is T1, Bcl-2 protein (histag-Bcl-2, UniProtKB P10415) (Homo sapiens, UniProt P10415).
T1 construct: His tag
The experiment in a line: Inhibition of Bcl-2 by the fluorescence polarisation technique. Conditions: fluorescence polarisation, 2 hours incubation; read-out: IC50 (nM) Bcl-2 FP. Type of assay: binding. The protocol: The fluorescence polarisation tests were carried out on microplates (384 wells). The Bcl-2 protein, labelled (histag-Bcl-2 such that Bcl-2 corresponds to the UniProtKB® primary accession number: P10415), at a final concentration of 2.50×10^−8 M, is mixed with a fluorescent peptide (Fluorescein-[…]), at a final concentration of 1.00×10^−8M in a buffer solution (Hepes 10 mM, NaCl 150 mM, Tween20 0.05%, pH 7.4), in the presence or absence of increasing concentrations of test compounds. After incubation for 2 hours, the fluorescence polarisation is measured.
For orientation: In fluorescence polarisation assays a small probe gives low polarisation when free and higher when bound to something large.

In assay [1] the test system is RS4;11 leukaemia tumour line. The experiment in a line: In vitro cytotoxicity (MTT) on RS4;11. Particulars: Homo sapiens; RS4;11 cells, 48 hours exposure. Type of assay: cell-based. On the procedure: The cytotoxicity studies were carried out on the RS4;11 leukaemia tumour line.
The cells are distributed onto microplates and exposed to the test compounds for 48 hours.
The cell viability is then quantified by a colorimetric assay, the Microculture Tetrazolium Assay (Cancer Res., 1987, 47, 939-942).

Structures are written as SMILES. Where a name gives a salt, the structure may show the parent alone.

T1 sequence (P10415 whole entry): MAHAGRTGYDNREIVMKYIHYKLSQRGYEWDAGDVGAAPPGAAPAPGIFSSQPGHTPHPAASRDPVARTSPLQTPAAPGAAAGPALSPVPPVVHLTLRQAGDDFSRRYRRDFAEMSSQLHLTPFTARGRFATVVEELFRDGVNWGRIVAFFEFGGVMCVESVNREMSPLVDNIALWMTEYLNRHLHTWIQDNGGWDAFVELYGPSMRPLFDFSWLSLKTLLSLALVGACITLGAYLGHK

Regarding `O=C(c1cc(-c2cc3c(cc2C(=O)N2Cc4ccccc4C[C@H]2CO)OCO3)n2c1CCCC2)N(c1ccccc1)c1ccc(O)cc1` [Example 16, 3-(6-{[(3S)-3-(Hydroxymethyl)-3,4-dihydroisoquinolin-2(1H)-yl]-carbonyl}-1,3-benzodioxol-5-yl)-N-(4-hydroxyphenyl)-N-phenyl-5,6,7,8-tetrahydro-indolizine-1-carboxamide], the half-maximal inhibitory concentration (IC50) at Bcl-2 protein is 7.5 nM; in assay [1], 252 nM.

With `C[C@@H]1Cc2ccccc2CN1C(=O)c1cc2c(cc1-c1cc(C(=O)N(c3ccc(O)cc3)c3ccc(OCCN4CCOCC4)c(F)c3)c3ccccn13)OCO2` [Example 17, N-{3-Fluoro-4-[2-(morpholin-4-yl)ethoxy]phenyl}-N-(4-hydroxyphenyl)-3-(6-{[(3R)-3-methyl-3,4-dihydroisoquinolin-2(1H)-yl]carbonyl}-1,3-benzodioxol-5-yl)indolizine-1-carboxamide hydrochloride], the IC50 was found to be 3.4 nM at Bcl-2 protein and 11.8 nM in assay [1].

As to `O=C(c1cc2c(cc1-c1cc(C(=O)N(c3ccc(O)cc3)c3ccc(OCCN4CCOCC4)c(F)c3)c3ccccn13)OCO2)N1CCc2ccccc2C1` [Example 18, 3-[6-(3,4-Dihydroisoquinolin-2(1H)-ylcarbonyl)-1,3-benzodioxol-5-yl]-N-{3-fluoro-4-[2-(morpholin-4-yl)ethoxy]phenyl}-N-(4-hydroxyphenyl)indolizine-1-carboxamide hydrochloride], the IC50 worked out at 7.5 nM at Bcl-2 protein and 47.7 nM in assay [1].

Take `Cc1ccc(C(=O)N2Cc3ccccc3C[C@H]2CCN2CCOCC2)c(-c2cc(C(=O)N(c3ccccc3)c3ccc(O)cc3)c3n2CCCC3)c1` [Example 19, N-(4-Hydroxyphenyl)-3-(5-methyl-2-{[(3S)-3-[2-(morpholin-4-yl)ethyl]-3,4-dihydroisoquinolin-2(1H)-yl]carbonyl}phenyl)-N-phenyl-5,6,7,8-tetrahydro-indolizine-1-carboxamide hydrochloride]: the IC50 worked out at 8 nM at Bcl-2 protein and 235 nM in assay [1].

As for `O=C(c1cc(-c2ccccc2C(=O)N2Cc3ccccc3C[C@H]2CCN2CCOCC2)n2c1CCCC2)N(c1ccccc1)c1ccc(O)cc1` [Example 20, N-(4-Hydroxyphenyl)-3-(2-{[(3S)-3-[2-(morpholin-4-yl)ethyl]-3,4-dihydroisoquinolin-2(1H)-yl]carbonyl}phenyl)-N-phenyl-5,6,7,8-tetrahydroindolizine-1-carboxamide hydrochloride], the values for the IC50 (on Bcl-2 protein; in assay [1]) were 11.1 nM and 205 nM, respectively.

As for `C[C@@H]1Cc2ccccc2CN1C(=O)c1cc2c(cc1-c1cc(C(=O)N(c3ccncc3)c3ccc(O)cc3)c3ccccn13)OCO2` [Example 21, N-(4-Hydroxyphenyl)-3-(6-{[(3R)-3-methyl-3,4-dihydroisoquinolin-2(1H)-yl]carbonyl}-1,3-benzodioxol-5-yl)-N-(pyridin-4-yl)indolizine-1-carboxamide hydrochloride], the IC50 at Bcl-2 protein came out at 4.6 nM; in assay [1], 25.3 nM.

In the case of `O=C(c1cc(-c2cc3c(cc2C(=O)N2Cc4ccccc4C[C@H]2CCN2CCOCC2)OCO3)n2cccnc12)N(c1ccccc1)c1ccc(O)cc1` [Example 22, N-(4-Hydroxyphenyl)-6-(6-{[(3S)-3-[2-(morpholin-4-yl)ethyl]-3,4-dihydroisoquinolin-2(1H)-yl]carbonyl}-1,3-benzodioxol-5-yl)-N-phenylpyrrolo[1,2-a]-pyrimidine-8-carboxamide hydrochloride], the half-inhibitory concentration (IC50) on Bcl-2 protein was found to be 12.9 nM; in assay [1], 263 nM.

As for `N#Cc1cccc(N(C(=O)c2cc(-c3cc4c(cc3C(=O)N3Cc5ccccc5C[C@H]3CCN3CCOCC3)OCO4)n3c2CCCC3)c2ccc(O)cc2)c1` [Example 23, N-(3-Cyanophenyl)-N-(4-hydroxyphenyl)-3-(6-{[(3S)-3-[2-(morpholin-4-yl)ethyl]-3,4-dihydroisoquinolin-2(1H)-yl]carbonyl}-1,3-benzodioxol-5-yl)-5,6,7,8-tetrahydroindolizine-1-carboxamide hydrochloride], the values for the half-maximal inhibitory concentration (IC50) (at Bcl-2 protein; in assay [1]) were 3.8 nM and 9.99 nM, respectively.

For `O=C(c1cc(-c2cc3c(cc2C(=O)N2Cc4ccccc4C[C@H]2CCN2CCOCC2)OCO3)n2c1CCCC2)N(c1ccc(O)cc1)c1cccc(F)c1` [Example 24, N-(3-Fluorophenyl)-N-(4-hydroxyphenyl)-3-(6-{[(3S)-3-[2-(morpholin-4-yl)ethyl]-3,4-dihydroisoquinolin-2(1H)-yl]carbonyl}-1,3-benzodioxol-5-yl)-5,6,7,8-tetrahydroindolizine-1-carboxamide hydrochloride], the half-maximal inhibitory concentration (IC50) stood at 6.2 nM at Bcl-2 protein and 28.4 nM in assay [1].

For `O=C(c1cc(-c2cc3c(cc2C(=O)N2Cc4ccccc4C[C@H]2CCN2CCOCC2)OCO3)n2c1CCCC2)N(c1ccc(O)cc1)c1ccc(F)c(F)c1` [Example 25, N-(3,4-Difluorophenyl)-N-(4-hydroxyphenyl)-3-(6-{[(3S)-3-[2-(morpholin-4-yl)ethyl]-3,4-dihydroisoquinolin-2(1H)-yl]carbonyl}-1,3-benzodioxol-5-yl)-5,6,7,8-tetrahydroindolizine-1-carboxamide hydrochloride], the IC50 at Bcl-2 protein worked out at 7.9 nM; in assay [1] it was 30 nM.

In the case of `O=C(c1cc(-c2cc3c(cc2C(=O)N2Cc4ccccc4C[C@H]2CCN2CCOCC2)OCO3)n2c1CCCC2)N(c1ccccc1)c1cccc(F)c1` [Example 26, N-(3-Fluorophenyl)-3-(6-{[(3S)-3-[2-(morpholin-4-yl)ethyl]-3,4-dihydro-isoquinolin-2(1H)-yl]carbonyl}-1,3-benzodioxol-5-yl)-N-phenyl-5,6,7,8-tetrahydro-indolizine-1-carboxamide hydrochloride], the IC50 on Bcl-2 protein amounted to 16.6 nM; in assay [1], 300 nM.

Consider `O=C(c1cc(-c2cc(Cl)ccc2C(=O)N2Cc3ccccc3C[C@H]2CCN2CCOCC2)n2c1CCCC2)N(c1ccc(O)cc1)c1cccc(F)c1` [Example 27, 3-(5-Chloro-2-{[(3S)-3-[2-(morpholin-4-yl)ethyl]-3,4-dihydroisoquinolin-2(1H)-yl]carbonyl}phenyl)-N-(3-fluorophenyl)-N-(4-hydroxyphenyl)-5,6,7,8-tetrahydroindolizine-1-carboxamide hydrochloride], for which the IC50 on Bcl-2 protein turned out to be 7.7 nM; in assay [1], 44.1 nM.

In the case of `COc1ccc(C(=O)N2Cc3ccccc3C[C@H]2CCN2CCOCC2)c(-c2cc(C(=O)N(c3ccccc3)c3ccc(O)cc3)c3n2CCCC3)c1` [Example 28, N-(4-Hydroxyphenyl)-3-(5-methoxy-2-{[(3S)-3-[2-(morpholin-4-yl)ethyl]-3,4-dihydroisoquinolin-2(1H)-yl]carbonyl}phenyl)-N-phenyl-5,6,7,8-tetrahydro-indolizine-1-carboxamide hydrochloride], the results for the IC50 (at Bcl-2 protein; in assay [1]) were 8.8 nM and 112 nM, respectively.

Turning to `COc1ccc(-c2cc(C(=O)N(c3ccccc3)c3ccc(O)cc3)c3n2CCCC3)c(C(=O)N2Cc3ccccc3C[C@H]2CCN2CCOCC2)c1` [Example 29, N-(4-Hydroxyphenyl)-3-(4-methoxy-2-{[(3S)-3-[2-(morpholin-4-yl)ethyl]-3,4-dihydroisoquinolin-2(1H)-yl]carbonyl}phenyl)-N-phenyl-5,6,7,8-tetrahydro-indolizine-1-carboxamide hydrochloride], the results for the IC50 (on Bcl-2 protein; in assay [1]) were 19 nM and 163 nM, respectively.

As for `C[C@@H]1Cc2ccccc2CN1C(=O)c1cc2c(cc1-c1cc(C(=O)N(c3ccc(O)cc3)c3ccc(CN4CCCC(F)(F)C4)cc3)c3ccccn13)OCO2` [Example 30, N-{4-[(3,3-Difluoropiperidin-1-yl)methyl]phenyl}-N-(4-hydroxyphenyl)-3-(6-{[(3R)-3-methyl-3,4-dihydroisoquinolin-2(1H)-yl]carbonyl}-1,3-benzodioxol-5-yl)indolizine-1-carboxamide hydrochloride], the concentration for half-maximal inhibition (IC50) at Bcl-2 protein worked out at 10.4 nM; in assay [1] it was 52.3 nM.

Consider `C[C@@H]1Cc2ccccc2CN1C(=O)c1cc2c(cc1-c1cc(C(=O)N(c3ccc(O)cc3)c3ccc4ncccc4c3)c3ccccn13)OCO2` [Example 31, N-(4-Hydroxyphenyl)-3-(6-{[(3R)-3-methyl-3,4-dihydroisoquinolin-2(1H)-yl]carbonyl}-1,3-benzodioxol-5-yl)-N-(quinolin-6-yl)indolizine-1-carboxamide hydrochloride], for which the IC50 on Bcl-2 protein came out at 5.4 nM; in assay [1] it was 13.7 nM.

Regarding `Cc1cc(N(C(=O)c2cc(-c3cc4c(cc3C(=O)N3Cc5ccccc5C[C@H]3C)OCO4)n3ccccc23)c2ccc(O)cc2)ccn1` [Example 32, N-(4-Hydroxyphenyl)-3-(6-{[(3R)-3-methyl-3,4-dihydroisoquinolin-2(1H)-yl]carbonyl}-1,3-benzodioxol-5-yl)-N-(2-methylpyridin-4-yl)indolizine-1-carboxamide hydrochloride], the IC50 came out at 5 nM on Bcl-2 protein and 32.7 nM in assay [1].

In the case of `C[C@@H]1Cc2ccccc2CN1C(=O)c1cc2c(cc1-c1cc(C(=O)N(c3ccc(O)cc3)c3cnc4c(ccn4C)c3)c3ccccn13)OCO2` [Example 33, N-(4-Hydroxyphenyl)-3-(6-{[(3R)-3-methyl-3,4-dihydroisoquinolin-2(1H)-yl]carbonyl}-1,3-benzodioxol-5-yl)-N-(1-methyl-1H-pyrrolo[2,3-b]pyridin-5-yl)indolizine-1-carboxamide hydrochloride], the IC50 on Bcl-2 protein was 4.6 nM; in assay [1], 6.33 nM.

As usually defined, the IC50 is the concentration at which inhibition is half-maximal.

(Values after patent US10414754B2, “Indolizine compounds, a process for their preparation and pharmaceutical compositions containing them” (LES LABORATOIRES SERVIER, priority 2013, dated 2019).)
